# Laboratory results from patent US20050124618A1, “Methods of modulating angiogenesis and cancer cell proliferation” (priority 2003, published 2005).
# Assays:
# 20-HETE = assay: Urinary excretion of 20-HETE in rats (fluorescent HPLC assay); type: in vivo, rat; conditions: chronic treatment with HET0016 for 7 days, 1 mg/kg ip twice daily
# From the text: The rats were divided in four groups. […] This dose was chosen based on our previous results (Kehl F et al., Am J Physiol Heart Circ Physiol 282: H1556-H1565, 2002).
# Measurement of urinary excretion of 20-HETE: On the last day of electrical stimulation, rats were placed in a metabolic cage that efficiently separates urine from food. Just before the start of the urine collection, food was withdrawn to avoid contamination of the urine sample, and the 24-h control and treated urine samples were collected into a glass bottle packed with ice. The concentration of 20-HETE in the urine samples was measured using a fluorescent HPLC assay, as previously described (Maier K G et al., Am J Physiol Heart Circ Physiol 279: H863-H871, 2000). […] Excess dye was removed using Sep-Pak Vac extraction (Maier K G et al., Am J Physiol Heart Circ Physiol 279: H863-H871, 2000), and the samples were dried under argon, resuspended in 100 μl of methanol, and analyzed by reverse-phase HPLC (Waters) using a fluorescence detector (model number L-7480; Hitachi, Naperville, Ill.). The amount of 20-HETE in the sample was determined by comparing the area of the 20-HETE peak with that of the internal standard.
# SAPK/JNK = assay: Western blot of phospho-SAPK/JNK in U251 cells; type: cell-based, human; conditions: 10 μM HET0016, 24 and 48 hr
# Experimental: They were then pelleted by centrifugation at 1,000 g for 5 min at 4° C. Cells were lysed by adding RIPA buffer [20 mM HEPES (pH 7.4), 100 mM NaCl, 1% Nonidet P-40, 0.1% SDS, 1% deoxycholic acid, 10% glycerol, 1 mM EDTA, 1 mM NaVO3, 50 mM NaF, and Protease Inhibitors Set 1 (Calbiochem, La Jolla, Calif.)]. Plates were then scraped and cells collected in a 1.5-ml centrifuge tube, followed by incubation on ice for 30 min. Homogenates of the cell suspension were centrifuged for 10 min at 14,000 g and 4° C.; the pellets were discarded and protein concentrations in the supernatant determined by bicinchoninic acid (BCA) protein assay.
# Typically, 20 μg of protein was separated on a 14% Tris-glycine gel (Invitrogen) and electroblotted on a PVDF membrane (Biotrace, Bothell, Wash.). Membranes were blocked for 1 h at room temperature with blocking buffer [0.2% I-Block reagent (Tropix, Bedford, Mass.), 0.1% Tween-20 in […]] before incubation with primary antibodies in blocking buffer (overnight at 4° C.). […] Both phospho-tyrosine (Y102) and phospho-serine/threonine-Pro MPM2 were detected using a 1:2000 dilution of the corresponding antibodies, whereas phospho-p44/p42MAPK and phospho-SAPK/JNK were detected using 1:1000 antibody dilutions. […]
structure (smiles),measurement,setting,value
"CCCCc1ccc(N=CNO)c(C)c1 [HET0016, N-hydroxy-N′-(4-butyl-2 methylphenyl) formamidine]",reduction of 24-h urinary 20-HETE excretion compared with the control group (lecithin),20-HETE,36%
same,phosphorylation of SAPK/JNK,SAPK/JNK,specifically inhibited phosphorylation
